Measurements published in US8623327B2, “Imaging agents for use in magnetic resonance blood flow/perfusion imaging” (Beth Israel Deaconess Medical Center, Inc., priority 2006, dated 2014).
Where two headings read alike, the source gives them in different places.

Columns and labels:
[1] = NMR relaxation time (T1, T2) measurement, saturation recovery; assay type: physicochemical; settings: for median value of T1: 9.6 T
[2] = cited from earlier work
[3] = cited from earlier work; remark: listed apart in the source
[4] = tested on: alcohol dehydrogenase enzyme; settings: cited from earlier work
[5] = single saturated recovery experiment (FIGS. 2A and 2B)

In the case of [2H]C([2H])([2H])[13C](O)(C([2H])([2H])[2H])C([2H])([2H])[2H], the “median value of T1” value ([1]; at 400 Mhz) is reported as 64 ± 20 s, the T1 ([1]; at 400 Mhz, measured in water with oxygen present) is reported as over 20 s and the T1 [1, 5] is reported as 46±4. The T2 [1, 5] was 0.6±0.02.

For [2H][13C]([2H])([2H])C(O)([13C]([2H])([2H])[2H])[13C]([2H])([2H])[2H], the “median value of T1” value ([1]; at 400 Mhz) was 26 ± 5 s.

In the case of [3He] [3He], the solubility in blood [2] is listed as “not soluble in blood”.

In the case of [Xe] [Xenon], the relaxation time ([3]; in blood) is given as “less than 10 seconds” and the relaxation time ([3]; in tissue) is given as at least 2 s.

For CC(C)(C)O [t-butanol, tert-butyl alcohol], the “processing by alcohol dehydrogenase enzyme” value [4] is listed as “not processed”.
